Test results as given in patent US7740882B2, “Enhanced oral and transcompartmental delivery of therapeutic or diagnostic agents” (priority 2001, dated 2010).
Entries after “also recorded” stand apart in the source; their conditions may differ. Where two headings read alike, the source gives them in different places. Non-standard residues stand in square brackets, D forms with d.

How the values were obtained:
superoxide production = settings: literature value; read-out: EC50 for superoxide production (Klinker et al., 1996); cited from earlier work
SMVT [1] = target: T1, SMVT (Homo sapiens, UniProt Q9Y289); settings: read-out: Ki, competitive inhibition of RI-K(biotin)-Tat9 transport; Caco-2, inhibitors at 10 and 20 μM
T1 sequence (Q9Y289 1-635): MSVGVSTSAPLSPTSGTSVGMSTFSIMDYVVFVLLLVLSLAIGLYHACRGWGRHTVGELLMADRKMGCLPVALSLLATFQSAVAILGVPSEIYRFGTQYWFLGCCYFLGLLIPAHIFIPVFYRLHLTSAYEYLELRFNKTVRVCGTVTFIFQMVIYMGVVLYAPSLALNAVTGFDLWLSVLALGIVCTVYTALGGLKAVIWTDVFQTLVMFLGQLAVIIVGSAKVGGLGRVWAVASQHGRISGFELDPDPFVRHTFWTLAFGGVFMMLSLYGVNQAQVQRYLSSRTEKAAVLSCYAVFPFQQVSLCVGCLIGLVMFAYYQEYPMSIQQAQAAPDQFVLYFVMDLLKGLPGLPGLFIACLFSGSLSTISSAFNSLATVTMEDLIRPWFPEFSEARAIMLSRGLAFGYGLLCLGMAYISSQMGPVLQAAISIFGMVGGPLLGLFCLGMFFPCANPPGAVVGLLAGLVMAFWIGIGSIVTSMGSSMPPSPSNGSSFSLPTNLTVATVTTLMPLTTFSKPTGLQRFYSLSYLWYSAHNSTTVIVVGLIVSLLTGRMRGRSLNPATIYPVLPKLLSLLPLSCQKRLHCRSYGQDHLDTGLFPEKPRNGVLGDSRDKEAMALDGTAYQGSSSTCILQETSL
Excerpt: [formula] where Pe is the effective permeability of the substrate transported, Cs is the substrate concentration and Pm and Pc represent the passive and carrier-mediated component of the permeability. All data were initially fitted to a 3-parameter model (Pc, Pm, Km for Caco-2 studies, Jmax, Pm, Km for CHO studies). […] The data from inhibition studies were transformed into Lineweaver-Burke plots to determine the nature of the inhibition process (competitive, non-competitive). Subsequently, the inhibition constant (Ki) values were estimated using Dixon plots. Data used for the above plots were weighted using 1/SEM^2 (S.E.M=Standard Error of Mean). The kinetic parameters for CHO cell studies were estimated by performing non-linear regression using the equation J=Jmax*[C]/(Km+[C])+Pm*C, where J is the rate of permeant uptake, Pm is the passive uptake component and [C] is the substrate concentration. Data were weighted using 1/S.E.M^2.

SMVT [2] = target: T1, SMVT; settings: read-out: Ki, competitive inhibition of biotin-PEG-3400 transport; Caco-2, inhibitors at 10 and 20 μM
Excerpt: Data Analysis. The Michaelis-Menten kinetic parameters for the Caco-2 cell monolayer transport studies were estimated by performing weighted non-linear regression with Scientist software (MicroMath, Utah) using the following equation: Pe=Pm+Pc/(1+C/Km), where Pe is the effective permeability of the substrate transported, C is the substrate concentration and Pm and Pc represent the passive and carrier-mediated component of the permeability. The data from inhibition studies were transformed into Lineweaver-Burke plots to determine the nature of the inhibition process (competitive, non-competitive). […] Data used for the above plots were weighted using 1/S.E.M.^2. The kinetic parameters for CHO cell studies were estimated by performing non-linear regression using the equation J=Jmax*[C]/(Km+[C]), where J is the rate of permeant uptake, Jmax is the maximal uptake velocity and [C] is the substrate concentration. Data were weighted using 1/S.E.M.^2. Statistical analyses were performed using Jandel SigmaStat, version 2.03. One-way analysis of variance was used to test the difference in the mean values of uptake using p<0.05 as the significance level for all tests.

SMVT [3] = target: T1, SMVT; assay: Inhibition of substrate uptake in CHO/hSMVT cells by 50 μM SMVT substrates; assay type: in vitro ADME; design: expressed in transfected cells; host or cells: CHO cells (ATCC), transient Lipofectamine transfection; plasmid was a gift of Dr. Puttur D. Prasad
[4] = tested on: bovine brain microvessel endothelial cells (BBMECs); assay: Transport (permeability) across BBMEC monolayers, in vitro BBB model
Experimental: Non-biotinylated PEGs were used in the control studies.
Isolation and culture of BBMECs. Bovine Brain Microvessel Endothelial Cells (BBMECs) were used as an in vitro model of BBB. BBMECs were isolated from bovine brain by a two-step enzymatic method and the cells were cultured on collagen coated Transwell™ plates or polystyrene plates in an atmosphere of 95% air and 5% CO2 at 37° C. Transendothelial electrical resistance (TEER) and several molecular markers were used to validate the integrity of the cell culture system.
The cells were cultured on 12-well Transwell™ filters for 7-8 days and transport was evaluated. […] All studies were performed at 37° C.

[5] = target: T2, human sodium dependent multivitamin transporter, hSMVT (Homo sapiens, UniProt Q9Y289); assay: Uptake in CHO cells transiently transfected with hSMVT (CHO/hSMVT); settings: not concentration dependent controls
T2 sequence (Q9Y289 1-635): T1 sequence (Q9Y289 1-635)
Experimental: (§1) CHO Cell Uptake Studies CHO cells transiently transfected with hSMVT (CHO/hSMVT) were washed twice with 25 mM uptake buffer, containing 25 mM Hepes/Tris pH 7.5, 140 mM NaCl, 5.4 mM KCl, 1.8 CaCl2, 0.8 mM MgSO4 and 5 mM glucose, approximately 48 hours post-transfection. Subsequently, the cells were incubated with the permeant at 37° C. for 10 minutes. Uptake was stopped by washing the cells thrice with ice-cold buffer. Non-specific uptake was measured in parallel experiments with the control pSPORT vector-transfected CHO cells. Finally, the cells were solubilized by 0.1% v/v Triton X-100, and 0.6 ml was used for scintillation counting. From the remaining volume, 10 μl of solution was taken from each well and protein concentration was determined using the Bio-Rad reagent according to the Bradford technique [M. Bradford, A rapid and sensitive method of quantitation of microgram quantities of protein utilizing the principle of protein-dye binding, Anal. Biochem. 72 (1976) 248]. Bovine serum albumin was used as the standard.
Parallel uptake experiments were performed using CHO/pSPORT control cells.
as §1, with “hSMVT” for “hSMVT (CHO/hSMVT)”, “glucose.” for “glucose, approximately 48 hours post-transfection.”, “Washing” for “Uptake was stopped by washing”, “three times” for “thrice”, “buffer stopped drug uptake.” for “buffer.”, “manufacturer's instructions.” for “Bradford technique [M. Bradford, A rapid and sensitive method of quantitation of microgram quantities of protein utilizing the principle of protein-dye binding, Anal. Biochem. 72 (1976) 248].”
as §1, with “Studies.” for “Studies”, “glucose.” for “glucose, approximately 48 hours post-transfection.”, “manufacturer's instructions.” for “Bradford technique [M. Bradford, A rapid and sensitive method of quantitation of microgram quantities of protein utilizing the principle of protein-dye binding, Anal. Biochem. 72 (1976) 248].”

CHO/pSPORT cells = assay: Non-specific uptake in vector-transfected control CHO/pSPORT cells
Experimental: as §1, with “From the remaining volume, 10 μl of solution was taken from each well and protein concentration was determined using the Bio-Rad reagent according to the Bradford technique [M. Bradford, A rapid and sensitive method of quantitation of microgram quantities of protein utilizing the principle of protein-dye binding, Anal. Biochem. 72 (1976) 248].” left out
CHO Cell Uptake Studies CHO cells transiently transfected with hSMVT were washed twice with 25 mM uptake buffer, containing 25 mM Hepes/Tris pH 7.5, 140 mM NaCl, 5.4 mM KCl, 1.8 CaCl2, 0.8 mM MgSO4 and 5 mM glucose. […] Non-specific uptake was measured in parallel experiments with the control pSPORT vector-transfected CHO cells. […] From the remaining volume, 10 μl of solution was taken from each well and protein concentration was determined using the Bio-Rad reagent according to the manufacturer's instructions. […]
CHO Cell Uptake Studies. […] Non-specific uptake was measured in parallel experiments with the control pSPORT vector-transfected CHO cells. […]

[6] = target: T3, fMLF receptor on differentiated HL-60 cells (Homo sapiens, UniProt P21462); assay: Competitive receptor binding assay with fML[3H]F
T3 construct: endogenous in cells; host or cells: HL-60 cells differentiated with 1.3% DMSO for 48 h; whole cells
T3 sequence (P21462 1-350): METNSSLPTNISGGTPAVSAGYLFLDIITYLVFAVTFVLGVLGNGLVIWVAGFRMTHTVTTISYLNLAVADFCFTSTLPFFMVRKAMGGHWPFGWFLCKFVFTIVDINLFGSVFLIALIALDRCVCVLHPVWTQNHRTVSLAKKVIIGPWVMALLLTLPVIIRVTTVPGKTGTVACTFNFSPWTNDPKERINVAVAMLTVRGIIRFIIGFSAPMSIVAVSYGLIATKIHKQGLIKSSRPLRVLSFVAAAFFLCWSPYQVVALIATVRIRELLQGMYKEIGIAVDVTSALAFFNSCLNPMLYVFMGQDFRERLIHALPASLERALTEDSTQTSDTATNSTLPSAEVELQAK

[7] = tested on: differentiated HL-60 cells; assay: Intracellular calcium assay (45Ca release from intracellular stores); assay type: cell-based, human; settings: differentiated HL-60 cells, calcium release; read-out: Cell Activation EC50
Experimental: Intracellular Calcium Assay. HL-60 cells (2×10^5 cells/mL) were grown in the presence of 1.3% DMSO for 5 days. For each time course experiment, 2×10^6 cells were resuspended in 5 mL of HBSS containing 2 mCi/mL of ^45CaCl2 as the sole source of calcium. After 90 min incubation at 37° C., cells were washed twice as above with cold HBSS. […] Cell pellets were treated with 0.5% Triton X-100/0.1 M NaOH and centrifuged in tubes containing 0.3 mL of 10% sucrose and radioactivity associated with the pellets was measured; this represents vesicle-associated ^45Ca. The top portion of the tube, which contained the cytoplasmic ^45Ca was also measured.

[8] = tested on: differentiated HL-60 cells; assay: Uptake of DIG conjugates by differentiated HL-60 cells (DIG ELISA); assay type: cell-based, human; settings: 333 nM, 30 min, 37° C.
Experimental: (§2) Uptake by HL-60, Jurkat and Peritoneal Cells. Human Jurkat T-cell growth conditions were the same as for HL-60 cells, except that the subcultivation ratio was 1:3. Jurkat cells (2×10^5) or fully differentiated HL-60 cells were washed twice with PBS and incubated in binding buffer (see above) with conjugate for 30 min at 37° C. Each conjugate (1 μg, dissolved at a concentration of 333 nM) was used in these experiments. Cells were lysed, the membranes and cell debris were removed by centrifugation (5 min. at 14,000×g) and the enzyme-linked immunosorbent assay (ELISA) for DIG was performed on the supernatant as described below. In order to study primary peritoneal cells, BALB/c mice were injected in the peritoneal cavity with 5 μg of PEG/A-DIG4-fMLF4 (n=3 mice), or PEG/A-DIG4 (n=4 mice). After 1 h, the cavity was flushed with medium and cells were collected and washed twice with cold PBS, as described above.
(§3) Cells were resuspended in 100 μL of PBS, containing 0.6% Tween 20, vortexed briefly and kept on ice for 30 min. […] Uptake of DIG was determined by ELISA of the supernatant. […] DIG content was proportional to the difference in absorbance at 495 nm and 450 nm. […] In order to account for the potential different amounts of peritoneal cells from each mouse, the results were normalized to the amount of protein, as measured with the Bradford assay (BioRad, Hercules Calif.).

Jurkat T-cells = assay: Uptake of DIG conjugates by Jurkat cells (DIG ELISA); assay type: cell-based, human; settings: 333 nM, 30 min
Experimental: as §2, §3

[9] = tested on: peritoneal cells (macrophages); assay: Uptake by peritoneal cells after intraperitoneal injection (DIG ELISA); assay type: in vivo, BALB/c mice
Experimental: as §2, §3

Experimental for Caco-2 cell monolayers: Caco-2 Cell Transport Studies An Ussing-type diffusion chamber system (Harvard Apparatus, Natick, Mass.) was used to perform transport studies. The apical solution was a MES Ringer's buffer (pH 6.5) consisting of 114.0 mM NaCl, 5.0 mM KCl, 1.1 mM MgSO4, 1.25 mM CaSO4, and 15 mM 2-(N-morpholino)ethanesulfonic acid (MES). The basolateral solution was a Ringer's buffer (pH 7.4) consisting of 114.0 mM NaCl, 5.0 mM KCl, 1.65 mM Na2HPO4, 0.3 mM NaH2PO4, 25 mM NaHCO3, 1.1 mM MgSO4, and 1.25 mM CaSO4. Both buffers contained 25 mM glucose and were adjusted to 290 mOsm/kg using a vapor pressure osmometer (Wescor Inc, Logan, Utah). For transport experiments using filters with cell monolayers, the inserts were rinsed with Ringer's buffet containing 25 mM glucose three times over a 20 min period at room temperature. The TEER was measured for each monolayer before it was mounted onto the diffusion chamber, which was pre-warmed to 37° C. by placement on the heating blocks. The volume of each half-chamber was 5 ml and the surface area of the Snapwell™ filters available for drug transport was 1 cm^2. […] The donor solution consisted of radiolabeled permeant in the apical buffer [apical (AP) to basolateral (BL) study]. Starting at 30 min, samples were taken from the receptor chamber every 15 min until the end of the experiment (105 min). A minimum of three monolayers was used to determine the permeability of test compound in each study and sample analysis was performed using scintillation counting (Perkin Elmer, Gaithersburg, Md.).
The Michaelis-Menten kinetic parameters of Caco-2 and CHO cell transport were then estimated using non-linear regression.
Prior to experimentation, diffusion chambers mounted with the Snapwells™ containing Caco-2 cells were equilibrated at 5° C., 10° C., 15° C., 25° C. and 37° C.
[formula] where Pe is the effective permeability of the substrate transported, Cs is the substrate concentration and Pm and Pc represent the passive and carrier-mediated component of the permeability. All data were initially fitted to a 3-parameter model (Pc, Pm, Km for Caco-2 studies, Jmax, Pm, Km for CHO studies).
Caco-2 Cell Transport Studies An Ussing-type diffusion chamber system (Harvard Apparatus, Natick, Mass.) was used to perform transport studies. The apical solution was a MES Ringer's buffer (pH 6.5) consisting of 114.0 mM NaCl, 5.0 mM KCl, 1.1 mM MgSO4, 1.25 mM CaSO4, and 15 mM 2-(N-morpholino)ethanesulfonic acid (MES). The basolateral solution was a Ringer's buffer (pH 7.4) consisting of 114.0 mM NaCl, 5.0 mM KCl, 1.65 mM Na2HPO4, 0.3 mM NaH2PO4, 25 mM NaHCO3, 1.1 mM MgSO4, and 1.25 mM CaSO4. Both buffers contained 25 mM glucose and were adjusted to 290 mOsm/kg using a vapor pressure osmometer (Wescor Inc, Logan, Utah). For transport experiments using filters with cell monolayers, the inserts were rinsed with Ringer's buffer containing 25 mM glucose three times over a 20 min period at room temperature. The TEER was measured for each monolayer before it was mounted onto the diffusion chamber, which was pre-warned to 37° C. by placement on the heating blocks.

## CSCC[C@H](NC=O)C(=O)N[C@@H](CC(C)C)C(=O)N[C@@H](Cc1ccccc1)C(=O)O [fMLF, N-formyl-methionine-leucine-phenylalanine]
Superoxide production
  EC50: 15 to 30 nM

## PEG-3350 [reference compound]
Caco-2 cell monolayers
  absorptive/effective permeability (Pe): ~1 ×10⁻⁶ cm/s

## N[C@@H](CCCCNC(=O)CCCC[C@@H]1SC[C@@H]2NC(=O)N[C@@H]21)C(=O)O [biocytin]
SMVT [1]
  Ki: 3270 nM
SMVT [2]
  Ki: 14000 nM
SMVT [3]; 0.1 μM RI-K(biotin)-Tat9, inhibitor 50 μM
  inhibition of RI-K(biotin)-Tat9 uptake: significantly inhibited; also recorded: significantly lowered (p<0.001)
SMVT [3]; 0.1 μM biotin-PEG-3400, inhibitor 50 μM
  inhibition of biotin-PEG-3400 uptake: significantly (p<0.01) inhibited
SMVT [3]; 0.1 μM conjugate, inhibitor 50 μM
  inhibition of PEG:(RI-K(biotin)-Tat9)8 uptake: significantly lower (p<0.05)

## N-acetyl-D-Lys-D-Arg-D-Arg-D-Arg-D-Gln-D-Arg-D-Arg-D-Lys-D-Lys-D-Arg-NH2 (Ac-[dK][dR][dR][dR][dQ][dR][dR][dK][dK][dR]-NH2; SMILES CC(=O)N[C@H](CCCCN)C(=O)N[C@H](CCCNC(=N)N)C(=O)N[C@H](CCCNC(=N)N)C(=O)N[C@H](CCCNC(=N)N)C(=O)N[C@H](CCC(N)=O)C(=O)N[C@H](CCCNC(=N)N)C(=O)N[C@H](CCCNC(=N)N)C(=O)N[C@H](CCCCN)C(=O)N[C@H](CCCCN)C(=O)N[C@H](CCCNC(=N)N)C(N)=O) [RI-K-Tat9]
[4]
  Papp: 7.3 ×10⁻⁶ cm/s
[5]
  uptake in CHO/hSMVT cells: < 1 pmol/mg protein/10 min
CHO/pSPORT cells
  uptake in CHO/pSPORT cells: < 1 pmol/mg protein/10 min

## PEG/A-fMLF4-DIG4: linear PEG-aspartate copolymer bearing four fMLF and four digoxigenin residues
[6]; Kd multiplied by average number of fMLF moieties, read-out: Relative Avidity Kd/fMLP
  Kd: 4.8 nM
[6]; differentiated HL-60 cells, competition with fML[3H]F, read-out: Avidity Kd
  Kd: 1.2 nM
[6]; ratio of EC50 (calcium) to Kd
  Avidity Activation EC50/Kd: 4.92
[7]
  EC50: 5.9 nM
[8]
  conjugate bound and/or internalized: 18%
Jurkat T-cells
  conjugate accumulated: 1.3%
[9]; BALB/c mice, 5 μg i.p., 1 h
  administered conjugate taken up by peritoneal cells: 17%
[9]; non-activated peritoneal cells
  DIG accumulation, fold over non-targeted conjugate PEG/A-DIG8: ~5 fold
